{"source": "paper PMC8440871", "about": "“LC-Q-Orbitrap-MS/MS Characterization, Antioxidant Activity, and α-Glucosidase-Inhibiting Activity With In Silico Analysis of Extract From Clausena Indica (Datz.) Oliv Fruit Pericarps” (Frontiers in Nutrition, 2021)", "biological_target": "α-Glucosidase from Saccharomyces cerevisiae (Saccharomyces cerevisiae, UniProt P53341)", "sequence (P53341 whole entry)": "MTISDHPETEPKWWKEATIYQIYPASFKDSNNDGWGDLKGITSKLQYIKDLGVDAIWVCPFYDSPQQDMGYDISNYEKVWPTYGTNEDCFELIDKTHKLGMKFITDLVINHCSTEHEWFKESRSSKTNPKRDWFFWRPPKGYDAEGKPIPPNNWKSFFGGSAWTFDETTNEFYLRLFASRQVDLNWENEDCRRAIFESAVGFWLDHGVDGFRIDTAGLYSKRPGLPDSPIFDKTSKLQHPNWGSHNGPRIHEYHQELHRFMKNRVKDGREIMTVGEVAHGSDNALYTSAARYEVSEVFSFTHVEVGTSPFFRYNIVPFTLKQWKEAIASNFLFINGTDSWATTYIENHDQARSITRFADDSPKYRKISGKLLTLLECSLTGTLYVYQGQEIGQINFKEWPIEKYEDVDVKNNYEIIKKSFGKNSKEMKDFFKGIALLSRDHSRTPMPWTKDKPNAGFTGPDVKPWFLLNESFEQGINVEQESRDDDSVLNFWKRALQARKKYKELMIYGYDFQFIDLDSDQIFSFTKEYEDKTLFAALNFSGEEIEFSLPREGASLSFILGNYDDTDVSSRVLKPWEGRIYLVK", "experiment": "α-Glucosidase inhibiting activity (α-GIA), p-NPG substrate", "type": "biochemical", "conditions": "0.5 U/ml enzyme, pH 6.8, 37°C, 5 mM p-NPG", "data": [{"smiles": "Oc1cc(O)c2c(c1)O[C@H](c1ccc(O)c(O)c1)[C@@H](O)C2", "note": "[(+)-Catechin]", "values": [{"measurement": "IC50 α-GIA", "value": 374.23, "unit": "µg/mL"}]}]}
